The text below walks through data of ChEMBL document CHEMBL5465560, “Selectivity Literature for EUbOPEN Chemogenomic Library” (2024).

The structures appear in SMILES notation.

The target in assay [1] is Receptor-type tyrosine-protein kinase FLT3 (Homo sapiens) (UniProt P36888). Briefly: (§1) Selectivity interaction (Kinase panel (Z-LYTE Assay)) EUB0001632a FLT3. The note with it: at 10 µM.
In assay [2] the test system is T1, Receptor-type tyrosine-protein kinase FLT3 (Homo sapiens), P36888 [D835Y].
T1 sequence (whole entry): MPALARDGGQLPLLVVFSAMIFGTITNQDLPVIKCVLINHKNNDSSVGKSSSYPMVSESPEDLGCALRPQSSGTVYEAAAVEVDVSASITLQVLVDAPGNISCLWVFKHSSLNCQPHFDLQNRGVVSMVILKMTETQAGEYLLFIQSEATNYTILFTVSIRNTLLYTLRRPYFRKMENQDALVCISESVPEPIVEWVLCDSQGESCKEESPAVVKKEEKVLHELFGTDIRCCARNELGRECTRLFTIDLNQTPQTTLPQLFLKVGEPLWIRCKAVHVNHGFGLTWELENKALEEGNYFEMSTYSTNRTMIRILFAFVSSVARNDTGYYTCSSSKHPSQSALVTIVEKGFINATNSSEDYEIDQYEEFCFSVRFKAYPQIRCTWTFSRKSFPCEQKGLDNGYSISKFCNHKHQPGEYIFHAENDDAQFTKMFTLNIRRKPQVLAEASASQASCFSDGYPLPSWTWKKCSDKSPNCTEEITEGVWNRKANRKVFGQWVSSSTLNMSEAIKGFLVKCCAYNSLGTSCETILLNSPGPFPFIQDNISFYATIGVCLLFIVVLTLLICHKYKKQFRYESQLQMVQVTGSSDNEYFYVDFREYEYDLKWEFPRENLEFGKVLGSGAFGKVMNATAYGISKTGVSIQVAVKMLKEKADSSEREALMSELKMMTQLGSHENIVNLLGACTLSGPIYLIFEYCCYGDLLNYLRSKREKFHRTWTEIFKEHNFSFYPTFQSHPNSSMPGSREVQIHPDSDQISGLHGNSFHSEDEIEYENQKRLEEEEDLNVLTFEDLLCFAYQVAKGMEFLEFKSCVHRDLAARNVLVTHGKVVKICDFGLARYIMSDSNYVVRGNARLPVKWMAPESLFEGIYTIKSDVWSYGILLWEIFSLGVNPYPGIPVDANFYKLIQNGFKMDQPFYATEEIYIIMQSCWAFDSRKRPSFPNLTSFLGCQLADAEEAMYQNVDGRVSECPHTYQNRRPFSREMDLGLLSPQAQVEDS
Described as §1. Particulars: at 10 µM.

Assay [3] has as its target T2, Serine/threonine-protein kinase D3 (Homo sapiens) (UniProt O94806).
T2 sequence (whole entry): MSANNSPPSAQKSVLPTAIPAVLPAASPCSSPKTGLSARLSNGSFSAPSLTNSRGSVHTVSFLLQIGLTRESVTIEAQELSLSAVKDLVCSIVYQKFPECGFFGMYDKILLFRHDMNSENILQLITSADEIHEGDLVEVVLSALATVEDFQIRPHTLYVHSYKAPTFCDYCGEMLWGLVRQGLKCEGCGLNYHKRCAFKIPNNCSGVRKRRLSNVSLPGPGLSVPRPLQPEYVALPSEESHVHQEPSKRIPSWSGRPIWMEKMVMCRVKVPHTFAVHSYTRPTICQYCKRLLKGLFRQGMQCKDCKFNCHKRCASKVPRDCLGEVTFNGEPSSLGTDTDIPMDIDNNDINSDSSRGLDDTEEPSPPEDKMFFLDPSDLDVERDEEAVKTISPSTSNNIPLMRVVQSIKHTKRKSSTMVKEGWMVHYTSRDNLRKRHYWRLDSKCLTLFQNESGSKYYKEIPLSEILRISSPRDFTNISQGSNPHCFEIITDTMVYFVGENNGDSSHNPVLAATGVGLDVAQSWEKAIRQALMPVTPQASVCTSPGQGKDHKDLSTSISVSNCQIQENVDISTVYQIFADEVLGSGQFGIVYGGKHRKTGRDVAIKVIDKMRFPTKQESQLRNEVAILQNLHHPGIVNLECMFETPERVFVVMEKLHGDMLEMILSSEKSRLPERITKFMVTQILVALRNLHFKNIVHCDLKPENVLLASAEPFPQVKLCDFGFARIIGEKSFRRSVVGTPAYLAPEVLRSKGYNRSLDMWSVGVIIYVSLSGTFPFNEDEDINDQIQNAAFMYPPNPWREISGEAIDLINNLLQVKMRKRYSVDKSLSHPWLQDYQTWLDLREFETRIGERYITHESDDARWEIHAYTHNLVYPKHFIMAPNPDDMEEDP
Briefly: Selectivity interaction (KinomeScan (DiscoverX)) EUB0000229b PRKD3. The note with it: at 10 µM.

Assay [4] deals with Activin receptor type-2B (Homo sapiens) (UniProt Q13705). Briefly: Selectivity interaction (KinomeScan (DiscoverX)) EUB0000655a ACVR2B. The note with it: at 10 µM.
For assay [5], the target named is T3, Serine/threonine-protein kinase RIO1 (Homo sapiens) (UniProt Q9BRS2).
T3 sequence (whole entry): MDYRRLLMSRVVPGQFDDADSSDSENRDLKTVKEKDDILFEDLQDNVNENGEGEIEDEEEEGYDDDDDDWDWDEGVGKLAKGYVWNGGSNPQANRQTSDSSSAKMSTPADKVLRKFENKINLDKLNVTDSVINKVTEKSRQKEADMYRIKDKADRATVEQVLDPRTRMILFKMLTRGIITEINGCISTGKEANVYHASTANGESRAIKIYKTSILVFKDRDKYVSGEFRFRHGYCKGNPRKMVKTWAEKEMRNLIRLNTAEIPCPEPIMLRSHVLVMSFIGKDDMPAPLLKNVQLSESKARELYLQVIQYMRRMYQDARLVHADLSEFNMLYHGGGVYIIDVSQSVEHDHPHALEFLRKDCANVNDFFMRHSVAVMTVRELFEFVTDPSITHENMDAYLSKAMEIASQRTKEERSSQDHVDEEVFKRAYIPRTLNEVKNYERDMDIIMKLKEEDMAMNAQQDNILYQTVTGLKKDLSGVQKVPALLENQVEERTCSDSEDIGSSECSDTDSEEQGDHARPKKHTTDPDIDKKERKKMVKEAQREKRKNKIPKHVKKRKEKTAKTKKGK
Briefly: Selectivity interaction (KinomeScan (DiscoverX)) EUB0000655a RIOK1. Particulars: at 10 µM.

Assay [6] deals with LIM domain kinase 2 (Homo sapiens) (UniProt P53671). The experiment in a line: Selectivity interaction (Kinase panel (Invitrogen)) EUB0000639a LIMK2. Particulars: at 200 nM.
A further assay has as its target SRSF protein kinase 1 (Homo sapiens, UniProt Q96SB4). Briefly: Selectivity interaction (ActivX KiNativ screen (kinase selectivity in THP-1 cell lysates)) EUB0000639a SRPK1. It counts as subcellular. Particulars: lysate, at 0.04 µM.
Assay [7] has as its target Serine/threonine-protein kinase N2 (Homo sapiens, UniProt Q16513). Particulars: at 10 µM.
Assay [8] deals with CDK4/Cyclin D3 (Homo sapiens) (UniProt P11802+P30281). Briefly: (§2) Selectivity interaction (KinomeScan (DiscoverX)) EUB0001049a CDK4. In kind it is protein-complex assay. Particulars: at 1 µM.
For assay [9], the target named is Cyclin-dependent kinase 4/cyclin D1 (Homo sapiens) (UniProt P11802+P24385). Described as §2. In kind it is protein-complex assay. The note with it: at 1 µM.
The test system of assay [10] is Serine/threonine-protein kinase B-raf (Homo sapiens), P15056 [V600E]. Briefly: Selectivity interaction (KinomeScan (DiscoverX)) EUB0000618a BRAF. The note with it: at 10 µM.
Serine/threonine-protein kinase B-raf (Homo sapiens), P15056 [V600E], sequence (P15056 whole entry V600E): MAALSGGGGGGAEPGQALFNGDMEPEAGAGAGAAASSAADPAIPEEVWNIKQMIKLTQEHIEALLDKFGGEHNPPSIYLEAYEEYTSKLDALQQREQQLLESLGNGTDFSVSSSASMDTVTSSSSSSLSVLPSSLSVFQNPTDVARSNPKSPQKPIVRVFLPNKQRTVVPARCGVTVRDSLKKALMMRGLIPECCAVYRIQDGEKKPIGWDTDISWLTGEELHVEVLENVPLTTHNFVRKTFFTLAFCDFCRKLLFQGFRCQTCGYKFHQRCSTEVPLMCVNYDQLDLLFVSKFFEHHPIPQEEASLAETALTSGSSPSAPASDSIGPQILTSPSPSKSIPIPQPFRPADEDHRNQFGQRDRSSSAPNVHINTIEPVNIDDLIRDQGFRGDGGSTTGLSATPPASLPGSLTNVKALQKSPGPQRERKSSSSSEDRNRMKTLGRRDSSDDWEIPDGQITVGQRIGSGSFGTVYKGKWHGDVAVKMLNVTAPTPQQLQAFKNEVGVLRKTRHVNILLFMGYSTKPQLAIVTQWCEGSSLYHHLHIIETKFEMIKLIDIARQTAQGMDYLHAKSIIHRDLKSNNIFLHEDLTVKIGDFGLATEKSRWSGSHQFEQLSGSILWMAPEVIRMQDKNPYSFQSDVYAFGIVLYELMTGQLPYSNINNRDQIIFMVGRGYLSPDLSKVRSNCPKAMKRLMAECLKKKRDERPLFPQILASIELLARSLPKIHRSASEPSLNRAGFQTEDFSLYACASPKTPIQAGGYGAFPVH

LIM domain kinase 2 (Homo sapiens), sequence (P53671 whole entry, looked up, the tested form may be a part): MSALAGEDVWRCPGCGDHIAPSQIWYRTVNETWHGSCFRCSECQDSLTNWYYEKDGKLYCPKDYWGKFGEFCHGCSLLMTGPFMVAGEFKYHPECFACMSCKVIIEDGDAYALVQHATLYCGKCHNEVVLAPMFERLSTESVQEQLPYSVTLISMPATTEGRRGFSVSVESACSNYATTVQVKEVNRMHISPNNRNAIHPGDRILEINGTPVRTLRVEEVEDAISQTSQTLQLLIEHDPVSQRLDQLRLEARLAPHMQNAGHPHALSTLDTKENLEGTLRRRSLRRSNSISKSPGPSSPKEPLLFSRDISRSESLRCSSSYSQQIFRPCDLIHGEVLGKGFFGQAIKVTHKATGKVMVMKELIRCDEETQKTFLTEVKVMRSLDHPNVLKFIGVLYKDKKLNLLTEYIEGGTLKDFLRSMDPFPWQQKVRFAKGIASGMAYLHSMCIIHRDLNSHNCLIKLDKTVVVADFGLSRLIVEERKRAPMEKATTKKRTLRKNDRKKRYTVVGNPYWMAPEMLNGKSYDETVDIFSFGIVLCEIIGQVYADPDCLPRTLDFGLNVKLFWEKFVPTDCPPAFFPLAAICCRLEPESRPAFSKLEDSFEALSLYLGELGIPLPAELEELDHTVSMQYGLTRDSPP
SRSF protein kinase 1, sequence (Q96SB4 whole entry): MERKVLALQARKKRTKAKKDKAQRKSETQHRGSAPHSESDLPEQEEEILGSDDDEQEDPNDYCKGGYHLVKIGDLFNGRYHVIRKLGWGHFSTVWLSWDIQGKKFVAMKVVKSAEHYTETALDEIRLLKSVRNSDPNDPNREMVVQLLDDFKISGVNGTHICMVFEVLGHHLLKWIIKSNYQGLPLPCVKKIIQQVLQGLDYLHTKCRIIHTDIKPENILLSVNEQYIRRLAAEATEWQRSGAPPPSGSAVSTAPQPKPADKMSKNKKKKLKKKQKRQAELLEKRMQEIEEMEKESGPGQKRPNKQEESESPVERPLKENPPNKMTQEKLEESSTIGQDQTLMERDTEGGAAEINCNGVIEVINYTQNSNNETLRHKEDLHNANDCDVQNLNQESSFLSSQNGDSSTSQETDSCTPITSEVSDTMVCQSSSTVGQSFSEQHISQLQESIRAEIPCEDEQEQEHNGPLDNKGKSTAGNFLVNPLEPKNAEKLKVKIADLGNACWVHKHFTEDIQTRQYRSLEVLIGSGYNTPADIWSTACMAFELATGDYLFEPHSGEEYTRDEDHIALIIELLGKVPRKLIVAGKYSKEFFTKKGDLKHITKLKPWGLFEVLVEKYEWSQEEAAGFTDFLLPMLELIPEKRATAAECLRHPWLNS
Activin receptor type-2B (Homo sapiens), sequence (Q13705 whole entry): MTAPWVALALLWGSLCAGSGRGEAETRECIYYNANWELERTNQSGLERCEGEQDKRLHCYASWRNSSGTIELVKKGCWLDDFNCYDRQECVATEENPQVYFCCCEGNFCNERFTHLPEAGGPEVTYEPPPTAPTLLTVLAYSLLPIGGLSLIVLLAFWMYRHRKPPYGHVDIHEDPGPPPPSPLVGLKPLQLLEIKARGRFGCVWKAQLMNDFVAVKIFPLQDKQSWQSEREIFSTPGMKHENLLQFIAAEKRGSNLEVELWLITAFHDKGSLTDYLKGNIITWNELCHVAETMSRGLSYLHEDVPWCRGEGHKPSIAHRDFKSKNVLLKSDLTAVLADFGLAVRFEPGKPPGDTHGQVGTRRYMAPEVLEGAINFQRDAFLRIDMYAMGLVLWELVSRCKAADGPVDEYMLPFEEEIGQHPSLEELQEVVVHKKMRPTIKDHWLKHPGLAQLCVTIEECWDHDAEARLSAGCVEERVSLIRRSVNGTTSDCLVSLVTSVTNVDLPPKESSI
Serine/threonine-protein kinase N2, sequence (Q16513 whole entry, looked up): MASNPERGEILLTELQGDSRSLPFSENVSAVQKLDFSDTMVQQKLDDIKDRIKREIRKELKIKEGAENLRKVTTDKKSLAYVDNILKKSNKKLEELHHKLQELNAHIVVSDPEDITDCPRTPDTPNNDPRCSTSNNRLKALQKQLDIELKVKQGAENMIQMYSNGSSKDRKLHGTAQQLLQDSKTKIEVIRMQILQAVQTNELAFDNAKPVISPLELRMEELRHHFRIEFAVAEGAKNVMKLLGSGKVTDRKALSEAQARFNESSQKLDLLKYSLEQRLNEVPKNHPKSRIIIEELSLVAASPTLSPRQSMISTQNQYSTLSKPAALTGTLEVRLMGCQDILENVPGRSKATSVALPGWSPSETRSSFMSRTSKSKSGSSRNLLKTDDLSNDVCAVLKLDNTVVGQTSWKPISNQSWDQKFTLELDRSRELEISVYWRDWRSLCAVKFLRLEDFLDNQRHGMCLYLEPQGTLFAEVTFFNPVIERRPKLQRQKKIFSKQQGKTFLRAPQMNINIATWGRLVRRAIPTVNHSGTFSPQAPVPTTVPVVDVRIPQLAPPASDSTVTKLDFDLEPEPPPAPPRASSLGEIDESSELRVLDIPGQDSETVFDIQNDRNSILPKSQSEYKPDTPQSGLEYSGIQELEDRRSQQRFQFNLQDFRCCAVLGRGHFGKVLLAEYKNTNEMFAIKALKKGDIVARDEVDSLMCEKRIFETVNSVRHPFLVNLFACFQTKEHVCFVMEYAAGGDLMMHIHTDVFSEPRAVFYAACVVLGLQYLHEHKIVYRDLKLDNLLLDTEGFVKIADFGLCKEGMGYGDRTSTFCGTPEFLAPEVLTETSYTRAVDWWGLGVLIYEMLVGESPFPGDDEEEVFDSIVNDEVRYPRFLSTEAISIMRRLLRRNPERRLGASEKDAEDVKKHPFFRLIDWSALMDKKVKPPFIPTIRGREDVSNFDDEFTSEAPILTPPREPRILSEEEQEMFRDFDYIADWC

For the compound `Cn1cc(-n2cnc3c(NCc4nc5cc(Cl)c(Cl)cc5[nH]4)nc(N4CCOCC4)nc32)cn1`, the % of control in assay [1] came to 34.1%; in assay [2], 33.4%.
As for `COc1cc(N(C)c2ccnc3ccc(C(F)(F)F)cc23)cc(OC)c1OC`, the % binding in [3] is 58%.
Turning to `CN(C)CCOc1ccc(-c2nc(-c3ccncc3)c(-c3ccc4c(c3)CC/C4=N\O)[nH]2)cc1`, the values for the % of control in assay [4] and in [5] were 98% and 97%, respectively.
As for `CC[C@@H]1[C@H](F)C(=O)N[C@@H]1COc1nccc2cc(C(N)=O)c(OC)cc12` [ZIMLOVISERTIB], the values for the % of inhibition (in assay [6]; on SRSF protein kinase 1) were 1.7% and 6%, respectively.
In the case of `CCN(CC)CCCCNc1ncc2cc(-c3cc(OC)cc(OC)c3)c(NC(=O)NC(C)(C)C)nc2n1`, the % of control in assay [7] was determined as 100%.
`COc1cc(Nc2nc(C)cc(-c3cnn4nc(OC)ccc34)n2)cc(C(F)(F)F)c1`: the % of control in assay [8] came out at 98%; in [9], 100%.
In turn, `O[C@H]1CC[C@H](Nc2ncc3nc(Nc4c(F)cc(F)cc4F)n([C@H]4CCOC4)c3n2)CC1` had a % of control in assay [10] of 98%.
